From US11485728B2, “Small molecules for the treatment of autoimmune diseases and cancer” (Athos Therapeutics, Inc., priority 2020, dated 2022)
Read-outs that look alike come from different tables or passages of the source.

Tests used:
[1] = pH solubility; type: physicochemical; conditions: for solubility at 24 h: aqueous solution, thermodynamic from solid, read-out: Solubility Concentration; for solubility higher than the solubility of compound 201: pH 7.4
Procedure: Saturated solutions of selected compounds were prepared at pH 1, 4, 6.5, and 7.4. The pH conditions selected are within the extremes of the normal physiological pH of the human gastrointestinal tract. Solubility testing of drug under different pH conditions was carried out by adding an excess amount of drug to each pH condition initiating with 1 mg/mL and then confirmed saturation by visual observation of undissolved material. The saturated solutions are continuously shaking at 6,000 rpm for 24 hours at room temperature. The saturated solutions were filtered through Millipore 0.22 um PVDF hydrophilic filters and subjected to HPLC to evaluate the solubility concentration of the test compound. Filtered saturated solutions were diluted with acetonitrile:water (50:50) within the calibration standard curve. A calibration curve of test compound contained […] standards at concentrations 0.25, 0.5, 1.0, 5.0, 10, 25, 50 and 100 μg/mL were prepared in acetonitrile:water (50:50).
Compounds were measured in filtered saturated solution using an Agilent 1260 Infinity II Lab LC Series HPLC (1260 quat pump, 1260 vial autosampler, ICC column oven, 1260 DAD WR detector). The chromatographic separation was achieved by Phenomenex Synergi Polar RP column (150×4.6 mm, 4 μm, 80 Å). The mobile phase was gradient (A: water with 0.1% trifluoroacetic acid, B: acetonitrile with 0.1% trifluoroacetic acid; A/B (99:1) from 0 minute; to A/B (1:99) from 0 to 10 minutes; A/B (1:99) from 10 to 12 minutes; to A/B (99:1) from 12 to 12.1 minutes; A/B (99:1) from 12.1 to 13 minutes) pumped at a flow rate of 1 mL/min. The detection of the eluent was monitored at 254 nm. The column oven was set at 35° C. Injection volume was 10 μL, unless otherwise specified. Data acquisition and peak integrations were obtained by OpenLAB CDS Version 2.4 (Agilent) operating with Windows (Microsoft).
Solubility is the ability of a drug to dissolve in an aqueous solution under different pH conditions. It is defined as the amount of substance that passes into solution to achieve a saturated solution at a constant temperature and pressure. The purpose of this study was to determine the solubility of selected compounds under different pH conditions and determine whether an oral solution is feasible or a suspension would be better to support the drug formulation process for pre-clinical studies. The pH conditions selected were within the extremes of the normal physiological pH of the human gastrointestinal tract, such as pH 1, pH 4, pH 6.5, and pH 7.4.

[2] = tested on: CaCo-2 intestinal epithelial cells; experiment: Transepithelial resistance (TEER) of CaCo-2 cells exposed to TNFα and IFNγ; type: cell-based; conditions: for epithelial barrier resistance: TNFα 10 ng/ml, IFNγ 100 ng/ml, compounds 1 μM, 48 hrs of treatment; for transepithelial resistance after combined TNFα and IFNγ exposure: TNFα 20 ng/ml, IFNγ 200 ng/ml, 24 hrs of treatment
Procedure: The intestinal epithelial barrier plays a central role in the pathophysiology of multiple chronic inflammatory and autoimmune diseases. Intestinal epithelial cells provide a physical barrier that interacts with immune cells and protects internal cavities from mucosal bacterial and antigen intrusion. Intestinal inflammation during IBD is associated with disruption of this barrier and cytokines like TNFα play important roles.
At confluence TEER is measured and TNFα along with compounds are added as described above. Compound-induced TEER is determined after correction with measurement prior to treatment.

[3] = tested on: gut microbiome; experiment: Microbiome (shotgun metagenomic sequencing) of DSS-induced colitis mice; type: in vivo; conditions: for gut microbiome composition (in words): induced colitis conditions
[4] = tested on: Naïve human CD4 T cells; experiment: Differentiation of naïve human CD4 T cells into FoxP3+ Tregs (flow cytometry); type: cell-based; conditions: 500 nM, 5 days; for Tregs (%): anti-CD3 and anti-CD28 100 ng/ml, CD4highFoxP3high population; for increase of the number of Tregs over untreated: baseline 3.2%
Procedure: (§1) Naïve human CD4 T cells were cultured in DMEM supplemented with 10% heat-inactivated FBS, 2 mM glutamine, 100 U/ml penicillin, 100 μg/ml streptomycin and 25 mM Hepes. Human CD4 T cells were treated with anti-CD3 and anti-CD28 (100 ng/ml) together with small molecule compounds (500 nM) for 5 days. FoxP3 and CD4 positive cells were stained and imaged in a BD LSRII flow cytometer. The gated area represents the percentage CD4^highFoxP3^high immune cell population. Furthermore, the same small molecule compounds were evaluated for their effects on IL17 protein levels in human CD4 T cells by using an ELISA assay (R&D systems, cat no. D1700).

[5] = tested on: IL17; experiment: IL17 protein levels in human CD4 T cells (ELISA); type: cell-based
Procedure: as §1

[6] = DSS colitis mice, 25 mg/kg PO daily, p<0.05
[7] = CaCo-2, TNFα along with compounds

SMILES	solubility at 24 h ([1]; pH 4, aqueous buffer) [µg/mL]	solubility at 24 h ([1]; pH 6.5, aqueous buffer) [µg/mL]	solubility at 24 h ([1]; pH 7.4, aqueous buffer) [µg/mL]	solubility higher than the solubility of compound 201 [1] [fold]	epithelial barrier resistance [2]	transepithelial resistance after combined TNFα and IFNγ exposure [2]	TEER ([2]; vs control group)	Bacteroidetes phylum abundance [3, 6]	Firmicutes phylum abundance [3, 6]	Verrucomicrobia phylum abundance [3, 6]	gut microbiome composition (in words) [3]	Tregs (%) [4] [%]	increase of the number of Tregs over untreated [4] [fold]	IL17 protein levels [5]	Proteobacteria phylum abundance [3, 6]	TEER [2, 7]	solubility at 24 h ([1]; pH 1, simulated gastric fluid) [µg/mL]
COc1cc2c(NC3CCS(=O)(=O)CC3)nc(N3CCC(F)(F)CC3)nc2cc1OCCCN1CCCC1 [Compound 1, 4-((2-(4,4-difluoropiperidin-1-yl)-6-methoxy-7-(3-(pyrrolidin-1-yl)propoxy)quinazolin-4-yl)amino)tetrahydro-2H-thiopyran 1,1-dioxide]	11600	6050	424	40	recovered epithelial barrier resistance levels back to those of untreated cells	ameliorated the disruptive effects	+	increase	significant decrease	increase	significantly altered the gut microbiome composition and shifted it towards eubiosis						
COc1cc2c(NC3CCOCC3)nc(N3CCC(F)(F)CC3)nc2cc1OCCCN1CCCC1 [Compound 2, 2-(4,4-difluoropiperidin-1-yl)-6-methoxy-7-(3-(pyrrolidin-1-yl)propoxy)-N-(tetrahydro-2H-pyran-4-yl)quinazolin-4-amine]		27500	449	40	recovered epithelial barrier resistance levels back to those of untreated cells	ameliorated the disruptive effects	+	increase			significantly altered the gut microbiome composition and shifted it towards eubiosis	20.1	6.28	do not have an effect	increase		
COc1cc2c(Nc3ccncc3)nc(N3CCC(F)(F)CC3)nc2cc1OCCCN1CCCC1 [Compound 7, 2-(4,4-difluoropiperidin-1-yl)-6-methoxy-N-(pyridin-4-yl)-7-(3-(pyrrolidin-1-yl)propoxy)quinazolin-4-amine]					recovered epithelial barrier resistance levels back to those of untreated cells											−	
COc1cc2c(NC3COC3)nc(N3CCC(F)(F)CC3)nc2cc1OCCCN1CCCC1 [Compound 11, 2-(4,4-difluoropiperidin-1-yl)-6-methoxy-N-(oxetan-3-yl)-7-(3-(pyrrolidin-1-yl)propoxy)quinazolin-4-amine]	4450	3180	245														
COc1cc2c(NC3CCOCC3)nc(N3CCCC3)nc2cc1OCCCN1CCCC1 [Compound 164, 6-methoxy-2-(pyrrolidin-1-yl)-7-(3-(pyrrolidin-1-yl)propoxy)-N-(tetrahydro-2H-pyran-4-yl)quinazolin-4-amine]																++	
COc1cc2c(NC3CCN(C(C)C)CC3)nc(N3CCC(F)(F)CC3)nc2cc1OCCCN1CCCC1 [Compound 400, 2-(4,4-difluoropiperidin-1-yl)-N-(1-isopropylpiperidin-4-yl)-6-methoxy-7-(3-(pyrrolidin-1-yl)propoxy)quinazolin-4-amine, reference compound]	13200	7510	11		increased intestinal permeability		−					4.7	1.46	significantly suppresses			22800
